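96-well plates; 48 h exposure; 5 concentrations. Endpoints by linear interpolation between flanking doses. Not reached: highest tested concentration assigned. GI50 is the concentration that inhibits growth by half.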 The source made the active and inactive calls. Rule as the data show it: active = GI50 up to about 1.1 µM and inactive = higher.
How the values were obtained:
Test in all cases: NCI anticancer screen, dose series, 48 h
[1] = tested on: 786-0
[2] = tested on: A498
[3] = tested on: A549
[4] = tested on: ACHN
[5] = tested on: CAKI-1
[6] = tested on: CCRF-CEM
[7] = tested on: COLO 205
[8] = tested on: DLD-1
[9] = tested on: DMS-114
[10] = tested on: DMS-273
[11] = tested on: HCC 2998
[12] = tested on: HCT-116
[13] = tested on: HCT-15
[14] = tested on: HL-60
[15] = tested on: HOP-62
[16] = tested on: HOP-92
[17] = tested on: HT-29
[18] = tested on: IGROV-1
[19] = tested on: K562
[20] = tested on: KM12
[21] = tested on: LOX IMVI
[22] = tested on: LXFL 529
[23] = tested on: M14
[24] = tested on: M19-MEL
[25] = tested on: MOLT-4
[26] = tested on: Malme-3M
[27] = tested on: NCI-H23
[28] = tested on: NCI-H460
[29] = tested on: NCI-H522
[30] = tested on: OVCAR-3
[31] = tested on: OVCAR-5
[32] = tested on: OVCAR-8
[33] = tested on: RXF 631
[34] = tested on: SF-268
[35] = tested on: SF-295
[36] = tested on: SF-539
[37] = tested on: SK-MEL-28
[38] = tested on: SK-MEL-2
[39] = tested on: SK-OV-3
[40] = tested on: SN12C
[41] = tested on: SNB-19
[42] = tested on: SNB-75
[43] = tested on: SNB-78
[44] = tested on: SW-620
[45] = tested on: TK-10
[46] = tested on: U-251
[47] = tested on: UACC-257
[48] = tested on: UACC-62
[49] = tested on: UO-31
[50] = tested on: XF498
[51] = tested on: EKVX
[52] = tested on: KM-20L2
[53] = tested on: NCI-H226
[54] = tested on: RPMI-8226
[55] = tested on: SR
[56] = tested on: OVCAR-4
[57] = tested on: RXF 393
[58] = tested on: SK-MEL-5

In the case of CCOC(=O)CNC(=O)OCc1ccccc1, the GI50 [1] is reported as > 100 µM (inactive), the GI50 [2] is reported as > 100 µM (inactive) and the GI50 [3] is reported as > 100 µM (inactive). The GI50 [4] was > 100 µM (inactive), the GI50 [5] was > 100 µM (inactive) and the GI50 [6] was > 100 µM (inactive). The GI50 [7] was > 100 µM (inactive), the GI50 [8] was > 100 µM (inactive) and the GI50 [9] was > 100 µM (inactive). For the same compound, the GI50 [10] was > 100 µM (inactive), the GI50 [11] was > 100 µM (inactive) and the GI50 [12] was > 100 µM (inactive). The GI50 [13] was over 100 µM, the GI50 [14] was > 100 µM (inactive) and the GI50 [15] was > 100 µM (inactive). For the same compound, the GI50 [16] was > 100 µM (inactive), the GI50 [17] was > 100 µM (inactive) and the GI50 [18] was > 100 µM (inactive). For the same compound, the GI50 [19] was > 100 µM (inactive), the GI50 [20] was > 100 µM (inactive) and the GI50 [21] was > 100 µM (inactive). For the same compound, the GI50 [22] was > 100 µM (inactive), the GI50 [23] was > 100 µM (inactive) and the GI50 [24] was > 100 µM (inactive). The GI50 [25] was > 100 µM (inactive), the GI50 [26] was > 100 µM (inactive) and the GI50 [27] was > 100 µM (inactive). The GI50 [28] was > 100 µM (inactive), the GI50 [29] was > 100 µM (inactive) and the GI50 [30] was > 100 µM (inactive). The GI50 [31] was > 100 µM (inactive), the GI50 [32] was > 100 µM (inactive) and the GI50 [33] was > 100 µM (inactive). The GI50 [34] was > 100 µM (inactive), the GI50 [35] was > 100 µM (inactive) and the GI50 [36] was > 100 µM (inactive). For the same compound, the GI50 [37] was > 100 µM (inactive), the GI50 [38] was > 100 µM (inactive) and the GI50 [39] was > 100 µM (inactive). For the same compound, the GI50 [40] was > 100 µM (inactive), the GI50 [41] was > 100 µM (inactive) and the GI50 [42] was > 100 µM (inactive). For the same compound, the GI50 [43] was > 100 µM (inactive), the GI50 [44] was > 100 µM (inactive) and the GI50 [45] was > 100 µM (inactive). The GI50 [46] was > 100 µM (inactive), the GI50 [47] was > 100 µM (inactive) and the GI50 [48] was > 100 µM (inactive). The GI50 [49] was > 100 µM (inactive) and the GI50 [50] was > 100 µM (inactive).
In the case of CCOc1cccc2c1N[S@@](=O)S2, the GI50 [1] is reported as > 100 µM (inactive), the GI50 [3] is reported as > 100 µM (inactive) and the GI50 [4] is reported as > 100 µM (inactive). The GI50 [5] was > 100 µM (inactive), the GI50 [6] was 40.6 µM (inactive) and the GI50 [8] was > 100 µM (inactive). The GI50 [10] was > 100 µM (inactive), the GI50 [51] was > 100 µM (inactive) and the GI50 [12] was > 100 µM (inactive). The GI50 [13] was over 100 µM, the GI50 [14] was > 100 µM (inactive) and the GI50 [16] was > 100 µM (inactive). The GI50 [17] was > 100 µM (inactive), the GI50 [18] was > 100 µM (inactive) and the GI50 [19] was 53.3 µM (inactive). For the same compound, the GI50 [52] was > 100 µM (inactive), the GI50 [20] was > 100 µM (inactive) and the GI50 [21] was > 100 µM (inactive). For the same compound, the GI50 [22] was 58.7 µM (inactive), the GI50 [23] was > 100 µM (inactive) and the GI50 [24] was > 100 µM (inactive). The GI50 [25] was 55.3 µM (inactive), the GI50 [26] was > 100 µM (inactive) and the GI50 [53] was > 100 µM (inactive). The GI50 [27] was > 100 µM (inactive), the GI50 [29] was 55.5 µM (inactive) and the GI50 [30] was > 100 µM (inactive). For the same compound, the GI50 [54] was 98.2 µM (inactive), the GI50 [33] was > 100 µM (inactive) and the GI50 [34] was > 100 µM (inactive). The GI50 [35] was 80.4 µM (inactive), the GI50 [36] was > 100 µM (inactive) and the GI50 [37] was > 100 µM (inactive). For the same compound, the GI50 [38] was > 100 µM (inactive), the GI50 [39] was > 100 µM (inactive) and the GI50 [40] was > 100 µM (inactive). For the same compound, the GI50 [41] was 59.2 µM (inactive), the GI50 [42] was > 100 µM (inactive) and the GI50 [43] was > 100 µM (inactive). The GI50 [55] was 74.8 µM (inactive), the GI50 [44] was > 100 µM (inactive) and the GI50 [45] was > 100 µM (inactive). The GI50 [46] was 47.8 µM (inactive), the GI50 [47] was > 100 µM (inactive) and the GI50 [48] was 49.2 µM (inactive). The GI50 [49] was 98.4 µM (inactive) and the GI50 [50] was 78.7 µM (inactive).
For N#[N+]c1ccccc1Sc1ccc(Cl)cc1, the GI50 [1] was > 100 µM (inactive), the GI50 [2] was > 100 µM (inactive) and the GI50 [3] was > 100 µM (inactive). For the same compound, the GI50 [4] was > 100 µM (inactive), the GI50 [5] was > 100 µM (inactive) and the GI50 [6] was 89.9 µM (inactive). The GI50 [8] was > 100 µM (inactive), the GI50 [9] was 48.1 µM (inactive) and the GI50 [10] was > 100 µM (inactive). For the same compound, the GI50 [51] was > 100 µM (inactive), the GI50 [11] was > 100 µM (inactive) and the GI50 [12] was 74.3 µM (inactive). The GI50 [13] was over 100 µM, the GI50 [14] was 94 µM (inactive) and the GI50 [15] was 40.4 µM (inactive). The GI50 [17] was > 100 µM (inactive), the GI50 [18] was 82.8 µM (inactive) and the GI50 [19] was 75 µM (inactive). For the same compound, the GI50 [52] was > 100 µM (inactive), the GI50 [20] was > 100 µM (inactive) and the GI50 [22] was > 100 µM (inactive). For the same compound, the GI50 [23] was > 100 µM (inactive), the GI50 [24] was > 100 µM (inactive) and the GI50 [25] was 64.7 µM (inactive). The GI50 [26] was > 100 µM (inactive), the GI50 [53] was 76.9 µM (inactive) and the GI50 [27] was 47.8 µM (inactive). The GI50 [28] was > 100 µM (inactive), the GI50 [30] was > 100 µM (inactive) and the GI50 [56] was > 100 µM (inactive). The GI50 [31] was > 100 µM (inactive), the GI50 [32] was > 100 µM (inactive) and the GI50 [54] was 52.4 µM (inactive). For the same compound, the GI50 [57] was 32.2 µM (inactive), the GI50 [33] was 67.9 µM (inactive) and the GI50 [35] was > 100 µM (inactive). For the same compound, the GI50 [36] was > 100 µM (inactive), the GI50 [37] was > 100 µM (inactive) and the GI50 [38] was > 100 µM (inactive). The GI50 [58] was 61.2 µM (inactive), the GI50 [39] was > 100 µM (inactive) and the GI50 [42] was > 100 µM (inactive). The GI50 [43] was > 100 µM (inactive), the GI50 [44] was > 100 µM (inactive) and the GI50 [45] was > 100 µM (inactive). For the same compound, the GI50 [46] was > 100 µM (inactive), the GI50 [47] was > 100 µM (inactive) and the GI50 [48] was > 100 µM (inactive). For the same compound, the GI50 [49] was > 100 µM (inactive) and the GI50 [50] was > 100 µM (inactive).

Source: ChEMBL document CHEMBL1201862, “PubChem BioAssay data set” (2004)
